Experimental data taken from PMC10752971 (Frontiers in Pharmacology, 2023).
Read-outs that look alike come from different tables or passages of the source.

How the values were obtained:
[1] = system: induced pulmonary fibrosis mouse models; parameters: method as in Beck et al., 2020; settings: ref Beck et al., 2020; cited from earlier work
FP receptor [2] = target: T1, FP receptor (Homo sapiens, UniProt P43088); assay: [35S]-GTPγS immunoprecipitation assay of Gα-subunit coupling in MYLA cell membranes
T1 sequence (P43088 whole entry): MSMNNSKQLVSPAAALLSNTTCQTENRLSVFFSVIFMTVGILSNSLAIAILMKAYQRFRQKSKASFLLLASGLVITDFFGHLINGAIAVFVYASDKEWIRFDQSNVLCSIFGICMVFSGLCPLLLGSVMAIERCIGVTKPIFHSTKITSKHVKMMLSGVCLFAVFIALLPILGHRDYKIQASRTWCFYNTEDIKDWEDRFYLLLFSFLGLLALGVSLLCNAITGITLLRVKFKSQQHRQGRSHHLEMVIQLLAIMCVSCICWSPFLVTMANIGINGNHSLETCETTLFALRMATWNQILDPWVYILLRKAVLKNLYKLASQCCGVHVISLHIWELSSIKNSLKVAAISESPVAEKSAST
Procedure: Tissue preparation: MYLA cells were grown to 95%–100% confluency in a T175 flask, lifted, and pelleted via standard cell culture techniques. The harvested cells were homogenised in ice-cold lysis buffer (composition (mM): HEPES, 20; EDTA, 1; MgCl2, 2; KCl, 10; DTT, 2; pH, 7.4) using a Coleman handheld homogeniser. The homogenates were cleared (1,000×g, 10 min, 4°C) and membranes were collected by centrifugation (16,100×g, 90 min, 4°C). The membranes were resuspended in freezing buffer [composition (mM): HEPES, 10; MgCl2, 1; DTT, 1; pH, 7.4], where the protein concentration was adjusted to 1.5 mg/mL and rapidly frozen in liquid nitrogen. The membranes were stored at −80°C until required.
Radioligand binding assay: 75 μg of membrane was added to 50 μL of assay buffer [composition (mM): HEPES, 10; MgCl2, 10; NaCl, 100; pH, 7.4] containing 1 nM [^35S]-GTPγS (1,250 Ci/mmol) and 10 μM GDP, with or without agonist and antagonists as required, and incubated at 30°C for 2 min. Non-specific binding (NSB) was determined by the inclusion of 10 μM unlabelled GTPγS. Incubation was terminated by the addition of 900 μL of ice-cold assay buffer, and the samples were transferred to ice. The cell membrane was recovered from the reaction mixture by centrifugation (16,100×g, 6 min, 4°C), and the supernatant was removed by aspiration. Membrane pellets were solubilised by the addition of 50 μL of ice-cold solubilisation buffer [composition (mM): Tris-HCl, 100; NaCl, 200; EDTA, 1; IGEPAL CA 630, 1.25% (v/v); 0.2% (w/v) SDS; pH, 7.4] and vortex mixing. […] The beads were washed and pelleted thrice with 500 μL of solubilisation buffer (less SDS) before re-suspension in Pico-Flour^TM scintillation cocktail (Perkin Elmer, Buckinghamshire, United Kingdom) where [^35S]-GTPγS was determined by standard liquid scintillation counting methods.
Data analysis: Specific binding was determined by CPM values and expressed as a % increase over basal (unstimulated), and plotted using the GraphPad Prism 9 software. […]

FP receptor [3] = target: T1, FP receptor; assay: Antagonist Ca2+ assay: FP antagonists on PGF2α-stimulated Ca2+ transients in MYLA cells; assay type: cell-based; parameters: endogenous in cells; host or cells: MYLA cells (conditionally immortalised human myometrial cells; hTERT + temperature-sensitive SV40 large T)
Procedure: (§1) MYLA cells were grown to 95%–100% confluency in 3 cm^2 glass-bottom dishes (MatTek Corporation, MA, United States). The cells were serum starved for 24–48 h with 2% DMEM/F12 media and then incubated with 5 μM Calbryte^TM 520 AM (Stratech Scientific Ltd., Ely, United Kingdom) for 60 min at 37°C in a 95%/5% air/CO2-humidified environment, followed by 15 min at room temperature in the dark. […] The plates were then loaded on the stage of an Olympus IX81 inverted microscope and visualised with a 10x objective lens. Temperatures were maintained at 37°C. Calbryte^TM 520 AM was excited at Ex/Em: 490/525 nm. The cells were imaged for 3 min to allow any initial LED-induced Ca^2+ signalling to subside. […] Fluorescence was captured at a rate of one frame per second for 3 min, with agonist/antagonist injections occurring after a 30-s basal period.
(§2) Data analysis: Videos were visualised, and data were analysed using ImageJ, the image analysis software. […] The frequency of Ca^2+ oscillations was calculated as the average number of oscillations over time in seconds (Hz). All data were visualised using the GraphPad Prism 9 software.
(§3) Experiments were repeated on MYLA cells, where N represents the number of biological repeats.

MYLA cells [4] = assay: RT-qPCR of OXTR, CALD1 and MYLK expression in MYLA cells; assay type: cell-based, human; settings: for OXTR, CALD1, and MYLK expression at 48 h (RT-qPCR): 1 µM PGF2α + 1 µM antagonist vs 1 µM PGF2α; for Expression of OXTR, CALD1, and MYLK (RT-qPCR time series): 1 µM PGF2α + 1 µM antagonist, 1–48 h
[5] = system: transfected HEK-293 cell lines; parameters: method as in Martos et al., 2016; settings: ref Martos et al., 2016; cited from earlier work
MYLA cells [6] = assay: RNA-Seq time series of marker gene expression in MYLA cells; assay type: cell-based, human
Procedure: The MYLA cells were seeded into a T75 flask and allowed to grow to 95%–100% confluency. […] The cells were harvested at T = 1, 3, 6, 9, 12, 24, and 48 h, pelleted (1,200 rpm, 5 min, 4°C), and snap frozen on dry ice before storage at −80°C.
RNA was extracted from pelleted cells using the GenElute^TM Total RNA Purification Kit (Sigma Aldrich, Poole, United Kingdom) according to the manufacturer’s instructions. RNA concentration and purity were determined using a NanoDrop 1000 Spectrophotometer (Thermo Fisher Scientific, Loughborough, United Kingdom). All RNA samples were stored at −80°C until use.
RNA quality was verified using a Bioanalyzer according to the manufacturer’s instructions (Eukaryote Total RNA Nano, Agilent). Illumina TruSeq RNA libraries were prepared and sequenced using a NextSeq 500 with a high-output 75 bp cycle cartridge (Illumina, Cambridge, United Kingdom) by the University of Warwick Genomic Facility.
bcl2fastq v2.20.0.422 was used for demultiplexing each sample. FastQC v0.11.9 was used to quality control check the demultiplexed FastQC files, and MultiQC v1.9 consolidated the QC reports. Reads were aligned to the human reference genome build GRCh38 release 86 using STAR version 2.7.9a. The number of reads mapped to each genomic feature was calculated with featureCounts v2.0.1. The counts were imported into R Studio and analysed with the DESeq2 package.
Data analysis: TPM data were processed and analysed using R Studio and then plotted using the GraphPad 9 software.
The experiments were technical triplicates of biological triplicate samples taken from seven time points. The data in Figures 8–10 were analysed by two-way ANOVA and post hoc Dunnett’s multiple comparison test comparing treatments to the ethanol vehicle.

FP receptor [7] = target: T1, FP receptor; settings: MYLA cells
Procedure: as §1, §2, §3

[8] = 300 pM–10 µM antagonist in the presence of 1 µM PGF2α, N = 3, read-out: IC50, effect on AUC
[9] = 300 pM–10 µM antagonist in the presence of 1 µM PGF2α, N = 3, read-out: IC50, effect on Fmax
[10] = 300 pM–10 µM antagonist in the presence of 1 µM PGF2α, N = 3, read-out: IC50, effect on frequency of Ca2+ oscillations
[11] = four-parameter fit, bottom constrained to 0
[12] = normalised to averaged ionomycin Fmax

SMILES | IC50 (FP receptor [3]; [8]) [nM] | IC50 (FP receptor [3]; [9]) [nM] | IC50 (FP receptor [3]; [10]) [nM] | HillSlope ± SD, effect on AUC (FP receptor [3]; in the presence of 1 µM PGF2α) | HillSlope ± SD, effect on Fmax (FP receptor [3]; in the presence of 1 µM PGF2α) | HillSlope ± SD, effect on frequency (FP receptor [3]; in the presence of 1 µM PGF2α) | further results
Cc1c(N2CCCC2)nc2ccc(Br)cc2c1C(=O)NC[C@H](CCC(=O)O)c1ccccc1Cl [BAY-6672] | – | – | – | – | – | – | Effects in induced pulmonary fibrosis mouse models [1]: anti-inflammatory and antifibrotic effects
Cc1c(-c2ccccc2)nc2ccc(Br)cc2c1C(=O)NCC(CCC(=O)O)c1ccccc1Cl (stereo not drawn) [Compound 39/40, 5-(6-bromo-3-methyl-2-phenylquinoline-4-carboxamido)-4-(2-chlorophenyl) pentanoic acid] | 90 | 284 | 154 | −0.98 ± 0.27 | −0.54 ± 1.63 | −2.00 ± 0.56 | PGF2α-stimulated coupling to Gαq/11 (FP receptor [2]; 1 µM compound 39/40 + 1 µM PGF2α, 2 min): reversed; OXTR, CALD1, and MYLK expression at 48 h (RT-qPCR) (MYLA cells [4]): significant decrease; Expression of OXTR, CALD1, and MYLK (RT-qPCR time series) (MYLA cells [4]): reduced
Cc1c(N2CCCC2)nc2ccc(Br)cc2c1C(=O)NCC(CCC(=O)O)c1ccccc1Cl (stereo not drawn) [Compound 46/47, 5-(6-bromo-3-methyl-2-(pyrrolidin-1-yl)quinoline-4-carboxamido)-4-(2-chlorophenyl)-pentanoic acid] | – | – | – | −1.37 ± 0.68 | −1.02 ± 0.40 | −0.69 ± 0.30 | –
CC(C)Cn1ncc2cc(Cl)cc(Cn3nc(N)c4cc(C(=O)O)ccc43)c21 [Compound 68, 3-amino-1-((5-chloro-1-isobutyl-1H-indazol-7-yl)methyl)-1H-indazole-5-carboxylic acid] | 175 | 194 | 978 | −0.44 ± 0.19 | −0.47 ± 0.19 | −0.49 ± 0.17 | IC50 (FP receptor [3]; in the presence of 1 µM PGF2α, N = 3, read-out: pIC50 ± SD, effect on AUC (converted)): 89.1 nM; Potency in FLIPR functional assays [5]: potent
O=C(N[C@H](c1ccc(F)cc1)[C@H]1CCS(=O)(=O)C1)[C@@H]1CCN1S(=O)(=O)c1ccc(-c2cccnc2)cc1 [Compound N582707, (S)-N-((S)-((R)-1,1-dioxidotetrahydrothiophen-3-yl)(4-fluorophenyl)methyl)-1-((4-(pyridin-3-yl)phenyl)sulfonyl)azetidine-2-carboxamide] | 50.4 | 21.3 | 22.1 | – | −0.49 ± 0.20 | −0.55 ± 0.17 | Expression of fibroblast marker genes (DCN, FBLN1, LOXL1, PDGFRA) (MYLA cells [6]; 1 µM PGF2α + 1 µM FP antagonist, up to 48 h): increased the expression; IC50 (FP receptor [3]; in the presence of 1 µM PGF2α, N = 3, read-out: pIC50 ± SD, effect on frequency of Ca2+ oscillations (converted)): 21.9 nM; OXTR, CALD1, and MYLK expression at 48 h (RT-qPCR) (MYLA cells [4]): significant decrease; Expression of OXTR, CALD1, and MYLK (RT-qPCR time series) (MYLA cells [4]): reduced
O=C(N[C@@H](CCO)c1ccc(F)cc1)[C@@H]1SCCN1S(=O)(=O)c1ccc(-c2ccccc2)cc1 [OBE002, [(S)-3-(biphenyl-4-sulfonyl)-thiazolidine-2-carboxylic acid [(S)-1-(4-fluorophenyl)-3-hydroxy-propyl]-amide]] | 180 | 78.3 | 1980 | −0.41 ± 0.17 | −0.38 ± 0.15 | −0.36 ± 0.19 | pIC50 ± SD, effect on Fmax (FP receptor [3]; in the presence of 1 µM PGF2α, N = 3): 7.11 ± 0.68
CCCCC[C@H](O)/C=C/[C@@H]1[C@@H](C/C=C\CCCC(=O)O)[C@@H](O)C[C@H]1O [PGF2α, prostaglandin F2α] | – | – | – | – | – | – | [35S]-GTPγS binding to Gαq/11 (FP receptor [2]; 1 µM PGF2α vs basal, 2 min): significantly increased; Gαs and Gαi coupling (FP receptor [2]; stimulation with PGF2α): no effect; Effect on Fmax, AUC and frequency of intracellular Ca2+ oscillations compared to basal (FP receptor [7]; 300 pM to 10 µM PGF2α): concentration-dependent increase; HillSlope ± SEM, AUC (FP receptor [7]; [11]): 1.06 ± 0.45; HillSlope ± SEM, Fmax (FP receptor [7]; [11]): 0.91 ± 0.28; HillSlope ± SEM, Frequency (FP receptor [7]; [11]): 0.88 ± 0.33; Emax ± SEM, Frequency (FP receptor [7]; frequency of Ca2+ oscillations): 0.01 ± 0.01; Emax ± SEM, AUC (FP receptor [7]; [12]): 1.50 ± 0.14; Emax ± SEM, Fmax (FP receptor [7]; [12]): 0.14 ± 0.01; Expression of key genes involved in labour such as OXTR (also IL6, IL11) (MYLA cells [6]; 1 µM PGF2α vs vehicle, 1–48 h): upregulated; Expression of smooth muscle marker genes (ACTA2, CALD1, CNN1, COL4A1, COL4A2, MYLK, MYOCD, TAGLN, TGFB2, TGFB3) (MYLA cells [6]; 1 µM PGF2α, up to 48 h): increased expression
